Results from patent US9296728B2, “Therapeutic compounds” (Regents of the University of Minnesota, priority 2012, dated 2016).
Where two headings read alike, the source gives them in different places.

Legend:
[1] = Pharmacokinetic study of Compound 20 in ICR mice; format: in vivo; conditions: male, mouse, plasma; for concentration at 6 h / concentration at 24 h: n = 3; for AUC(0-inf) / AUC(0-t) / Cmax / Tmax / Vd/F: mean; for Vd/F: read-out: Vz/F
Description: 60 male ICR mice were split into two groups of 30. In each group the mice were prescribed Compound 20 at a dosage of 100 mg/kg. This dose was administered orally in group 1 and intraperitoneally in group 2. Each group of 30 mice was subdivided into groups of 3 mice. Blood samples were taken through orbital sinus method at 0, 0.083, 0.25, 0.5, 1, 2, 4, 6, 8 and 24 hours after administering Compound 20 and taken into tubes with anticoagulant at room temperature at least 30 minutes prior to centrifugation, then centrifuged at 10000 rpm for 5 minutes at 4° C. to separate plasma from the blood samples. Following centrifugation, the resulting serum was transferred to clean tubes and stored frozen at −80° C. Immediately following the blood samples, the brain tissue samples of mice were removed and stored frozen at −80° C.
A 20% brain homogenate was prepared by weighing brain tissue sample and adding, corresponding volume of saline into the manual homogenator. The dilution factor was 5 (w/v=1 g: 4 mL). The brain tissue sample was grinded slowly and repeatedly until it has become homogenous.
Plasma and Brain samples were centrifuged at 15777×g for 5 minutes, and 180 ul of supernatant was placed in a 96-well assay plate. To each well, 200 ul of a 50% ACN/H2O was added and the plates were shake-mixed for 3 minutes. 5 ul aliquots of each well were then analyzed using LC-MS/MS.
The standard non-compartmental model was used to generate the pharmacokinetic parameters: Cmax, Tmax, t1/2, AUC0->last, AUC0->inf, CL/F, and Vz/F. The maximum plasma concentration, Cmax, and its corresponding time, Tmax were directly recorded. Elimination rate constant kel was determined by linear regression of the terminal points of the semi-log plot of concentration against time. Elimination half-life was calculated by the formula; t12=0.693/kel. The Area Under the curve value from time 0 to 24 hours was defined as AUCt->last and calculated using the linear trapezoidal rule.

[2] = Toxicity study in healthy ICR mice (body weight, WBC, RBC); format: in vivo; conditions: for RBC ± SEM / WBC ± SEM: end of day 22
Description: 60 ICR mice weighing ˜27 grams were randomly assigned into 5 groups (12 animals, 6 male and 6 female per group), one group being the control group without any drug administration (food only). The drugs were administered twice daily by P.O. or I.P. Group 1 and 3 were administered orally with 50 mg/Kg of Compound 20 and 18 mg/Kg of Compound 14 respectively. Group 2 and 4 mice were injected intraperitoneally with 6.67 mg/Kg of Compound 20 and 5.3 mg/Kg of Compound 14 (dissolved in water) respectively. The body weights of mice were recorded daily for 22 days. At the end of the 22nd day, 3 mice were randomly selected from each group and their blood samples were collected for detailed analysis of white blood cell (WBC) and red blood cell (RBC) counts. The mice were then euthanized with CO2.

MCT1 = MCT1 (Rattus norvegicus (Rat), UniProt P53987); experiment: Test A. MCT1 inhibition via lactate uptake in rat brain endothelial (RBE4) cells; format: cell-based; conditions: 14C-lactate uptake
Description: Test A. MCT1 Inhibition Via Lactate Uptake Rat Brain Endothelial Cells
The entire lactate uptake studies for the inhibition of MCT1 were carried out on RBE4 (Rat Brain Endothelial 4) cells. The expression of MCT1 on these cells was confirmed by Western Blotting. The cells were plated approximately 20-24 hours before the experiment, the number of cells being approximately 10^5 cells per well. The test compounds were dissolved in DMSO and diluted 1000 times using a solution of HEPES buffer (pH 7.43) which consists of 3 μM ^14C-Lactate and 2 μM L-Lactate. The cells were washed twice with 500 μL of HEPES buffer and the cells were allowed to equilibrate for 15 minutes at 37° C. The HEPES buffer was removed and 250 μL of the test sample was added in triplicates. This was repeated for all the compounds, including the controls (CHC and DMSO). After 15 minutes, the compounds were removed from the well and 500 μL of ice-cold stop buffer (0.1 mM CHC solution in HEPES buffer) was added. The plate was kept on ice. Now, the HEPES buffer in one triplicate was removed and DMSO solution was added and immediately removed and ice-cold stop buffer was added. This was considered as “Zero”. One triplicate was left blank, which was used for protein assay after lysing the cells. The cells were washed twice with ice-cold HEPES buffer and then 250 μL of 0.1M NaOH in 5% Triton-X solution was added and the plate is kept on a shaker for 40 minutes to lyse the cells. 150 μL of the lysed cells was added into 4 mL of the scintillation fluid in a scintillation vial and scintillation count was obtained in disintegrations per minute (dpm). The percent inhibition values were calculated by taking DMSO as minimum. Concentration study (usually 9-12 dilutions) was done to determine the IC50 of each compound.

[3] = ICR, ip, 100 mg/kg, 100 mg/kg i.p., read-out: Plasma Concentration, individual animals (1#, 2#, 3#)
[4] = ICR, ip, 100 mg/kg, 100 mg/kg i.p.
[5] = ICR, po, 100 mg/kg, 100 mg/kg p.o., n = 3, read-out: Plasma Concentration, Mean
[6] = ICR, po, 100 mg/kg, 100 mg/kg p.o., read-out: Plasma Concentration, individual animals (1#, 2#, 3#)
[7] = ICR, po, 100 mg/kg, 100 mg/kg p.o.

MCT1, sequence (P53987 whole entry): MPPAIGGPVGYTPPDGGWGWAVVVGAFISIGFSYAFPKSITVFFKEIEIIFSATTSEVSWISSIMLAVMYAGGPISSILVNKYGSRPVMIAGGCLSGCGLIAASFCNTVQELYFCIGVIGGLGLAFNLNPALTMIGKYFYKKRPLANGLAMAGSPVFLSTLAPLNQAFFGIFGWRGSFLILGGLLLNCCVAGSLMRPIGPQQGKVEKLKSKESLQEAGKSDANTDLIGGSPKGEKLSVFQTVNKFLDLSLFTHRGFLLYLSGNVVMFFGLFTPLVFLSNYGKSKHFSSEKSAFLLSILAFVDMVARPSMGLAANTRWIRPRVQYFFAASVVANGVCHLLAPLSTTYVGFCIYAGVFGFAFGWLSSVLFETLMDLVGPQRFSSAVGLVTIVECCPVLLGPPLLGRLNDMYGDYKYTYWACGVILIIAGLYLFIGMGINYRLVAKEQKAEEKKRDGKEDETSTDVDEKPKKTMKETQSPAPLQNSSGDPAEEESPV
MCT1, sequence (P26453 141-388 partner): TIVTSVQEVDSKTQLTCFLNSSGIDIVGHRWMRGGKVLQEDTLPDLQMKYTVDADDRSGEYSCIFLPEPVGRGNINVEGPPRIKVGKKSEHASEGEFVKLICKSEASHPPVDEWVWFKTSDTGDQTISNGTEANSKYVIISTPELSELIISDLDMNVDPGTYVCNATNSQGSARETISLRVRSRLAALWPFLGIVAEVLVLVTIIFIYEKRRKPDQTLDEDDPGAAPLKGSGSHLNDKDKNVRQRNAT

## COc1cc(N(c2ccccc2)c2ccccc2)ccc1/C=C(\C#N)C(=O)O [Compound 20]
[1]; [3]
  concentration at 4 h: 25000 ng/mL
  concentration at 8 h: 2760 ng/mL
[1]; [4]
  concentration at 6 h: 7850 ng/mL
  concentration at 24 h: 121 ng/mL
[1]; ICR, ip, 100 mg/kg, 100 mg/kg i.p., n = 3, read-out: Plasma Concentration, Mean
  concentration at 8 h: 2840 ng/mL
[1]; [5]
  concentration at 0 h: 0 ng/mL
  concentration at 0.083 h: 3430 ng/mL
  concentration at 0.25 h: 9130 ng/mL
  concentration at 4 h: 3090 ng/mL
  concentration at 8 h: 4010 ng/mL
[1]; [6]
  concentration at 0 h: 0 ng/mL
  concentration at 0.083 h: 2210 ng/mL
  concentration at 0.25 h: 9690 ng/mL
[1]; ICR, po, 100 mg/kg, 100 mg/kg p.o., 0.5 h, n = 3, read-out: Plasma Concentration, Mean
  concentration at 0.5 h: 15500 ng/mL
[1]; ICR, po, 100 mg/kg, 100 mg/kg p.o., 1 h, n = 3, read-out: Plasma Concentration, Mean
  concentration at 1 h: 7050 ng/mL
[1]; ICR, po, 100 mg/kg, 100 mg/kg p.o., 2 h, n = 3, read-out: Plasma Concentration, Mean
  concentration at 2 h: 3150 ng/mL
[1]; [7]
  concentration at 6 h: 2470 ng/mL
  concentration at 24 h: 47.7 ng/mL
[1]; ip, 100 mg/kg i.p.
  AUC(0-inf): 201 µg·h/mL
  AUC(0-t): 201 µg·h/mL
  Cmax: 61300 ng/mL
  Tmax: 30 min
  Vd/F: 2.35 L/kg
[1]; po, 100 mg/kg p.o.
  AUC(0-inf): 66 µg·h/mL
  AUC(0-t): 65.7 µg·h/mL
  Cmax: 17500 ng/mL
  Tmax: 40 min
  Vd/F: 6.55 L/kg
[2]; 6.67 mg/kg i.p. twice daily
  Weight in grams (Day 0): 26.98 grams
  Weight in grams (Day 22): 33.54 grams
  RBC ± SEM: 1.82 ± 0.05 10^13/L
  WBC ± SEM: 3.83 ± 0.38 10^10/L
[2]; 50 mg/kg p.o. twice daily
  Weight in grams (Day 0): 26.91 grams
  Weight in grams (Day 22): 32.61 grams
  RBC ± SEM: 1.75 ± 0.06 10^13/L
  WBC ± SEM: 4.10 ± 0.3 10^10/L
MCT1
  IC50: 0.008 µM
